The text below walks through data of PMC9259591, “Irigenin, a novel lead from Iris confusa for management of Helicobacter pylori infection with selective COX-2 and HpIMPDH inhibitory potential” (Scientific Reports, 2022).

Values after ≈ are worked out from the molar mass of the structure shown. Values joined by “and” are separate entries in the source; they are usually repeats but may differ in a detail not shown here. Equal entries are not always repeated. Where two headings read alike, the source gives them in different places. Some results are limits rather than exact numbers.

Experiment [1] deals with T1, ovine COX-1 (Ovis aries, UniProt P05979).
T1 construct: purchased
T1 sequence (P05979 25-600): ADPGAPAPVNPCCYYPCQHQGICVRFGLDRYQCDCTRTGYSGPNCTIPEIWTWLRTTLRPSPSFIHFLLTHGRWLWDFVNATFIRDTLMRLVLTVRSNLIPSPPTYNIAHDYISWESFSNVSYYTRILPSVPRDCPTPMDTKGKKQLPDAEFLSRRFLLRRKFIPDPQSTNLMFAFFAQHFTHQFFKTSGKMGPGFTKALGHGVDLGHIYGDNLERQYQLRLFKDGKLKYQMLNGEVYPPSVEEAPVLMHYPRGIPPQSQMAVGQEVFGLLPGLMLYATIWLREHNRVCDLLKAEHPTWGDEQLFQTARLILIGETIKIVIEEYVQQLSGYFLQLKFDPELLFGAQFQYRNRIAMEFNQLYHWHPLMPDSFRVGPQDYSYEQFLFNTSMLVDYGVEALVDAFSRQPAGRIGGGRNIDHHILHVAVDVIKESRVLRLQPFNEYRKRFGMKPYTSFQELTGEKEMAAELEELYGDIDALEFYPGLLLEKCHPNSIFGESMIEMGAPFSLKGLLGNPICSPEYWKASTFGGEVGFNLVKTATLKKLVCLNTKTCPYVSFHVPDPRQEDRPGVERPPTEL
The experiment is described as follows: COX-1 inhibitory activity, colourimetric COX inhibitor screening assay kit. Type of experiment: biochemical. The protocol: (§1) The inhibitory COX activity was assayed colourimetrically by examining the inhibition of the ovine COX-1 and human recombinant COX-2 enzymes as described by George et al.[38], using a COX inhibitor screening assay kit. The detailed procedures were described in the supplementary file.
(§2) The inhibitory COX activity was assayed colourimetrically by examining the inhibition of the ovine COX-1 and human recombinant COX-2 enzymes as described by George et al. ^2, using a COX inhibitory screening assay kit. This assay determines the COX peroxidase activity by monitoring the appearance of N,N,N',N'-tetramethyl-p-phenylenediamine (TMPD). Assay buffer (150 μL 0.1 M Tris–HCl pH 8.0), 10 μL heme and 10μL enzyme (COX-1 or COX-2) were added in each well. Ten μL of each tested sample concentration was added to each well and incubated for 15 minutes at 37°C. After incubation, 20 μL of TMPD was added to each well. For initiating the reaction, 10 μL 10 mM arachidonic acid was added and the plates were further incubated for another 2 minutes at 37°C. For terminating the reaction, 50 μL 1 N HCl and saturated stannous chloride were added.
(§3) Reaction mixture containing assay buffer and heme acted as the blank and a mixture with either COX-1 or COX-2 assay buffer and heme acted as the 100% initial activity (IA). […] The absorbances of oxidized TMPD (blue colour) were read in ELISA plate reader at 590 nm. The % inhibition was calculated using the following formula:
(§4) COX % Inhibition= [(100%IA−Inhibitor)/ 100% IA x 100]. Where, IA: 100% initial activity.
(§5) The concentration at which the tested sample produces 50% inhibition of COX-1 and/or COX-2 (IC50) was determined. The selectivity index (SI) was calculated also as IC50 (COX-1)/ (COX-2).

The target in experiment [2] is T2, human recombinant COX-2 (Homo sapiens, UniProt P35354).
T2 construct: purchased
T2 sequence (P35354 18-604): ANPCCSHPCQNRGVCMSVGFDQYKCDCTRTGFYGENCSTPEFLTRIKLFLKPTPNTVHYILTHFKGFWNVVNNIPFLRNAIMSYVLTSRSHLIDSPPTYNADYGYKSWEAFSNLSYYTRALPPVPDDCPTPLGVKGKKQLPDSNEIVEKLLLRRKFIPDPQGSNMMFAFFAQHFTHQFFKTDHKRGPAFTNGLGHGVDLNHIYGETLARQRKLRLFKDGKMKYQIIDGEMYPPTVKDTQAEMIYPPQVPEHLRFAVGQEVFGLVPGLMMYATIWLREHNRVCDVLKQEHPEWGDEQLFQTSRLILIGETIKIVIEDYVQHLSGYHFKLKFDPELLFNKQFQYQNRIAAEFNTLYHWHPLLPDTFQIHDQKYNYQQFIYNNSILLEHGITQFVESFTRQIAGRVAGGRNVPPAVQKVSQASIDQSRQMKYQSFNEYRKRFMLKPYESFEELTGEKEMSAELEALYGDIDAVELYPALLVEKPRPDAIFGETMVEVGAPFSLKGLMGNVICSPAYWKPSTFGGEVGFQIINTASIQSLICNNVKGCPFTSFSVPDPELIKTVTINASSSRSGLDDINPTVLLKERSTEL
In words: COX-2 inhibitory activity, colourimetric COX inhibitor screening assay kit. Type of experiment: biochemical. As to conditions: for IC50: human recombinant COX-2; for SI (COX-1/COX-2): selectivity index calculated as IC50 (COX-1)/(COX-2). As to the method: as §1, §2, §3, §4, §5

In experiment [3] the test system is H. pylori ATCC 700392. In words: anti-Helicobacter pylori activity, microwell dilution method with MTT. It is filed as cell-based. As to conditions: for MIC (H. pylori): ND = not detected; for MIC: read-out: MIC (H. pylori). The protocol:
The anti-Helicobacter pylori activity of the PF and NPF as well as the isolated compounds was evaluated against H. pylori ATCC 700392 (type strain, obtained from the American Type Culture Collection unit (ATCC), using microwell dilution method and clarithromycin as standard drug[37]. The detailed procedures were described in the supplementary file.
The anti-Helicobacter pylori activity of the PF and NPF as well as the isolated compounds was evaluated against H. pylori ATCC 700392 (a type strain, obtained from the American Type Culture Collection unit (ATCC), using microwell dilution method and clarithromycin as standard drug ^1. The tested samples were prepared in dimethyl sulfoxide and successive ten twofold dilutions (125- 0.24 µg/mL) were carried out in a 96-well plate. Each microplate well included forty μL of Brain Heart Infusion growth medium and 10% fetal bovine serum (FBS), ten μL of inoculum and fifty μL of the tested sample. The plates were incubated for 3 days, in 5% oxygen, 10% carbon dioxide, 85 % nitrogen atmosphere at 37°C. Forty μL of 3- (4, 5-dimethyl-thiazol-2-yl)- 2,5-diphenyl-tetrazolium bromide (MTT) at a final concentration of 0.5 mg/mL freshly prepared in H2O was added to each well and incubated for 30 min. The bacteria were biologically active when change to purple color was observed ^1. While no change in MTT color indicated inhibition. Solvent control (DMSO) and the standard antibiotic (clarithromycin) were used as negative and positive controls, respectively. The H. pylori inhibition % was calculated using the given formula:
% Inhibition = Abs control – Abs sample × 100 /Abs control.

The test system of experiment [4] is RAW 264.7 macrophage cell line (NO). In words: nitric oxide (NO) inhibitory activity in lipopolysaccharide-stimulated macrophages. It is filed as cell-based, murine. As to conditions: Mus musculus, RAW264.7, RAW 264.7 cells, 1 µg/mL lipopolysaccharide. As to the method:
The detailed procedures were described in the supplementary file.
The cell was incubated at 37 °C in 5% carbon dioxide. RAW 264.7 cells were seeded onto a 96-well plate (1×10^5 cells/well) and incubated for 24 h. […] Followed by incubation, the cells stimulated with 1µg/mL of lipopolysaccharide for another 24 h. The supernatant was gently transferred to new 96-well plates and used for NO determination. L-N 6 - (1-iminoethyl) lysine hydrochloride), is used as standard drug. The absorbance (Abs) was measured in a microplate reader at 540 nm ^3. The percentage inhibition was calculated using the following formula:
Inhibition (%) = 1-[Control-Test] Control × 100.

The mark [5] stands for this setting: concentration required for 100% inhibition, H. pylori ATCC 700392.

For the compound `CC(C)[C@H]1CC[C@H]2[C@@]1(C)CC[C@@]1(C)[C@@H]3CC[C@H]4C(C)(C)[C@@H](O)CC[C@]4(C)C3=CC[C@]21C` [Isoarborinol (N1), isoarborinol], the concentration for half-maximal inhibition (IC50) in experiment [1] (ovine COX-1, read-out: IC50 (COX-1)) was found to be 73.3 ± 1 µM; in experiment [2], 51.8 ± 2.1 µM; in experiment [4], 44.3 ± 1.7 µM. The “SI (COX-1/COX-2)” value in experiment [2] is 1.42. Also, the “MIC (H. pylori)” value in experiment [3] (setting [5]) is on record as “no H. pylori inhibitory potential”.
Consider `COc1c(O)cc2occ(-c3ccc(O)cc3)c(=O)c2c1O` [Tectorigenin (P4), 4′,5,7-trihydroxy-6-methoxyisoflavone], for which the IC50 in experiment [1] was 407 µM; in experiment [2] (ND = not detected), 189 µM; in experiment [4], above 416 µM; in experiment [4] (ND = not detected), above 125 µg/mL. Moreover, the “SI (COX-1/COX-2)” value in experiment [2] is listed as 2.16. Besides, the MIC in experiment [3] (Helicobacter pylori, ATCC700392) is 15.6 µg/mL and 52 µM; in experiment [3] (setting [5]), 52.05 µM (≈ 15.6 µg/mL). Further, the “MIC (H. pylori)” value in experiment [3] (setting [5]) worked out at 15.63 µg/mL (≈ 52.1 µM).

The term IC50 denotes the concentration needed to halve the response being measured. The MIC is the least concentration at which growth counts as inhibited.
